Two compounds from patent US20170080026A1, “METHOD AND COMPOUND FOR OPENING POTASSIUM CHANNELS OF MAMMAL VASCULAR SMOOTH MUSCLES IN A REMOTE CONTROL MANNER” (Tovaristvo Z Obmezhenou Vidpovidalnistu "Nanomedtrast", priority 2015, published 2017) can be followed below.

The experiment concerns outgoing potassium current (IK) in rat thoracic aorta SM cells. In words: Whole-cell outgoing K+ current (IK) recording in isolated thoracic aorta smooth muscle cells. In kind it is cell-based. How it is done: C, D show effects of potassium channel blockers (paxillin, 500 nM, and […] 10 mm) on the outgoing potassium current in smooth muscle cells of thoracic aorta not exposed to Au NPs (C) and exposed to Au NPs (D). Currents caused by single step excitations with an amplitude of 10 mV and 300 ms increments within −100 and +70 mV of outgoing potential at −60 mV.
Currents in each cell (except for leakage current) were converted into specific […], averaged and depicted versus membrane potential (mV). The data thus obtained were brought in consistency using the standard Boltzmann function with average parameters described herein. The resulting current-voltage characteristics (curves I-V) were obtained by measuring current at the end of an impulse. The data represent mean values of ±SEM (n=8).
For the purposes of the study, smooth muscle cells isolated from rat thoracic aorta using collagenase and pronase were taken. Rats were anesthetised with ketamine (37.5 mg/kg body weight, intraperitoneally) and xylazine (10 mg/kg body weight, intraperitoneally), and thoracic aorta about 1.0 . . . 1.5 cm long was removed and denuded to make it free from connective tissue. Aorta was cut into small pieces (1.5×1.5 mm) in the cooled low Ca^2+ ion content solution comprising (in mM): NaCl 140, KCl 6, MgCl2 3, D-glucose 10, HEPES 10 (pH 7.4) for 15 minutes. Vascular tissues were placed in fresh low Ca^2+ ion content solution comprising collagenase type IA 2 mg/mL (417 U/mg), pronase type E XXV 0.5 mg/ml, and bovine albumin serum 2 mg/ml. Then tissues were incubated for 30 minutes at a temperature of +37 ° C. After incubation, tissues were washed (for 2-3 minutes) twice in fresh low Ca^2+ ion content solution to remove enzymes. Cells were dispersed by stirring using a glass pipette and then placed in modified Krebs bicarbonate buffer. A certain number of muscle cells was maintained at a temperature of […] and remained functional for at least 4 hours. […]

Like-named read-outs stand apart in the source and are kept apart here.

With `CC(C)(O)[C@H]1O[C@H]2CC[C@@]3(C)[C@@](O)(CC[C@H]4Cc5c([nH]c6ccccc56)[C@@]43C)C2=CC1=O` [Paxillin, paxillin], the “effect on Au NPs-induced IK increment” value (SM cells exposed to Au NPs) was “stopped Au NPs-induced IK increment”.
As for `CC[N+](CC)(CC)CC` [tetraethylammonium], the “effect on Au NPs-induced IK increment” value is “stopped Au NPs-induced IK increment” and the outgoing current is 3±1 pA/pF.
